Test results reported in PubChem BioAssay AID182 (DTP/NCI, 2004).
Inconclusive results and toxic doses are left out.

System: BDF1 mice, P388/ADR leukemia ip, median survival T/C
Experiment: NCI In Vivo Anticancer Drug Screen. Data for tumor model P388 Leukemia resistant to Adriamycin; NSC 123127, Developed at Scr 06 and 41 (intraperitoneal) in B6D2F1 (BDF1) mice
Settings: endpoint: median survival time, higher = longer survival
Method: The antitumor activity of compounds was measured in mice bearing transplantable tumors. Survival or tumor size were measured and the results are expressed as the measurement made in the treated group (T) divided by the measurement made in the vehicle treated control group (C). The tumor model used in this assay is P388 Leukemia resistant to Adriamycin; NSC 123127, Developed at Scr 06 and 41 (intraperitoneal) in B6D2F1 (BDF1) mice

For `COc1cccc2c1C(=O)c1c(O)c3c(c(O)c1C2=O)C[C@@](O)(C(=O)CO)C[C@@H]3OC1CC([N+](C)(C)C)C(O)C(C)O1` (stereo not given in full), the T/C (dose: 8.64 mg/kg/injection, schedule: Q04DX003 (ip), vehicle: water) was 99 % of control and the T/C (dose: 14.4 mg/kg/injection, schedule: Q04DX003 (ip), vehicle: water) was 99 % of control.

For `CC1OC(O[C@H]2/C=C/C=C/C=C/C=C/C=C/C=C/C=C/[C@H](C)[C@@H](O)[C@@H](C)[C@H](C)OC(=O)C[C@H](O)C[C@H](O)CC[C@@H](O)[C@H](O)C[C@H](O)C[C@]3(O)C[C@H](O)[C@@H](C(=O)O)[C@H](C2)O3)C(O)C(N)C1O` (stereo not given in full), the T/C (dose: 20.0 mg/kg/injection, schedule: Q04DX003 (ip), vehicle: clinical formulation) was 93 % of control.

In the case of `O=NN(CCCl)C(=O)NCCCl`, the T/C (dose: 13.0 mg/kg/injection, schedule: Q01DX001 (ip), vehicle: saline + alcohol) was 169 % of control, the T/C (dose: 21.6 mg/kg/injection, schedule: Q01DX001 (ip), vehicle: saline + alcohol) was 499 % of control and the T/C (dose: 36.0 mg/kg/injection, schedule: Q01DX001 (ip), vehicle: saline + alcohol) was 499 % of control.

For `Nc1nncs1`, the T/C (dose: 173.0 mg/kg/injection, schedule: Q04DX003 (ip), vehicle: other) was 199 % of control and the T/C (dose: 288.0 mg/kg/injection, schedule: Q04DX003 (ip), vehicle: other) was 90 % of control.

For `CC1OC(OC2CC(O)(C(=O)CO)Cc3c(O)c4c(c(O)c32)C(=O)c2ccccc2C4=O)CC(N)C1O` (stereo not given), the T/C (dose: 216.0 micrograms/kg/injection, schedule: Q04DX003 (ip), vehicle: water) was 100 % of control, the T/C (dose: 360.0 micrograms/kg/injection, schedule: Q04DX003 (ip), vehicle: water) was 102 % of control and the T/C (dose: 600.0 micrograms/kg/injection, schedule: Q04DX003 (ip), vehicle: water) was 101 % of control. The T/C (dose: 1000.0 micrograms/kg/injection, schedule: Q04DX003 (ip), vehicle: water) was 99 % of control.

With `CC[C@]1(O)C[C@H]2CN(CCc3c([nH]c4ccccc34)[C@@](C(=O)OC)(c3cc4c(cc3OC)N(C=O)[C@H]3[C@@](O)(C(=O)OC)[C@H](OC(C)=O)[C@]5(CC)C=CCN6CC[C@]43[C@@H]65)C2)C1` the T/C (dose: 0.5 mg/kg/injection, schedule: Q04DX003 (ip), vehicle: saline) was 92 % of control, the T/C (dose: 0.65 mg/kg/injection, schedule: Q04DX003 (ip), vehicle: saline) was 111 % of control and the T/C (dose: 1.0 mg/kg/injection, schedule: Q04DX003 (ip), vehicle: saline) was 92 % of control. For the same compound, the T/C (dose: 1.8 mg/kg/injection, schedule: Q04DX003 (ip), vehicle: saline) was 95 % of control, the T/C (dose: 3.0 mg/kg/injection, schedule: Q04DX003 (ip), vehicle: saline) was 87 % of control and the T/C (dose: 389.0 micrograms/kg/injection, schedule: Q04DX003 (ip), vehicle: saline) was 109 % of control. For the same compound, the T/C (dose: 432.0 micrograms/kg/injection, schedule: Q04DX003 (ip), vehicle: saline) was 113 % of control, the T/C (dose: 648.0 micrograms/kg/injection, schedule: Q04DX003 (ip), vehicle: saline) was 112 % of control and the T/C (dose: 720.0 micrograms/kg/injection, schedule: Q04DX003 (ip), vehicle: saline) was 107 % of control. The T/C (dose: 1080.0 micrograms/kg/injection, schedule: Q04DX003 (ip), vehicle: saline) was 110 % of control, the T/C (dose: 1200.0 micrograms/kg/injection, schedule: Q04DX003 (ip), vehicle: saline) was 101 % of control and the T/C (dose: 1800.0 micrograms/kg/injection, schedule: Q04DX003 (ip), vehicle: saline) was 107 % of control.

`CC(=O)c1cccc(NC2C(N)C(NC(=O)N(C)C)(C(C)O)C(C)(O)C2(O)COC(=O)c2c(C)cccc2O)c1` (stereo not given) was tested, and the T/C (dose: 5.18 mg/kg/injection, schedule: Q04DX003 (ip), vehicle: alkali diluted with saline) was 90 % of control, the T/C (dose: 6.5 mg/kg/injection, schedule: Q04DX003 (ip), vehicle: alkali diluted with saline) was 114 % of control and the T/C (dose: 8.64 mg/kg/injection, schedule: Q04DX003 (ip), vehicle: alkali diluted with saline) was 89 % of control. The T/C (dose: 14.4 mg/kg/injection, schedule: Q04DX003 (ip), vehicle: alkali diluted with saline) was 87 % of control.

`CC[C@@]1(O)C[C@H](OC2CC(N(C)C)C(OC3CC(O)C(OC4CC(O)C(O)C(C)O4)C(C)O3)C(C)O2)c2c(cc3c(c2O)C(=O)c2c(O)ccc(O)c2C3=O)[C@H]1C(=O)OC` (stereo not given in full) was tested, and the T/C (dose: 1.08 mg/kg/injection, schedule: Q04DX003 (ip), vehicle: water) was 106 % of control, the T/C (dose: 1.8 mg/kg/injection, schedule: Q04DX003 (ip), vehicle: water) was 109 % of control and the T/C (dose: 3.0 mg/kg/injection, schedule: Q04DX003 (ip), vehicle: water) was 120 % of control.

In the case of `O=C(Nc1ccc(C2=NCCCN2)cc1)c1ccc(C(=O)Nc2ccc(C3=NCCCN3)cc2)cc1`, the T/C (dose: 10.8 mg/kg/injection, schedule: Q04DX003 (ip), vehicle: other) was 118 % of control and the T/C (dose: 30.0 mg/kg/injection, schedule: Q04DX003 (ip), vehicle: other) was 94 % of control.

With `CSCS(=O)C[C@H](CO)NC(=O)/C=C/c1c(C)[nH]c(=O)[nH]c1=O` (stereo not given in full) the T/C (dose: 0.72 mg/kg/injection, schedule: Q04DX003 (ip), vehicle: saline) was 88 % of control, the T/C (dose: 0.86 mg/kg/injection, schedule: Q04DX003 (ip), vehicle: saline) was 100 % of control and the T/C (dose: 1.2 mg/kg/injection, schedule: Q04DX003 (ip), vehicle: saline) was 86 % of control. The T/C (dose: 1.44 mg/kg/injection, schedule: Q04DX003 (ip), vehicle: saline) was 114 % of control, the T/C (dose: 2.0 mg/kg/injection, schedule: Q04DX003 (ip), vehicle: saline) was 86 % of control and the T/C (dose: 2.4 mg/kg/injection, schedule: Q04DX003 (ip), vehicle: saline) was 119 % of control. For the same compound, the T/C (dose: 173.0 micrograms/kg/injection, schedule: Q01DX009 (ip), vehicle: saline) was 99 % of control, the T/C (dose: 288.0 micrograms/kg/injection, schedule: Q01DX009 (ip), vehicle: saline) was 99 % of control and the T/C (dose: 480.0 micrograms/kg/injection, schedule: Q01DX009 (ip), vehicle: saline) was 95 % of control.

`O=CC(NC(=O)N(CCCl)N=O)C(O)C(O)C(O)CO` (stereo not given) was tested, and the T/C (dose: 6.48 mg/kg/injection, schedule: Q04DX003 (ip), vehicle: saline) was 240 % of control, the T/C (dose: 10.8 mg/kg/injection, schedule: Q04DX003 (ip), vehicle: saline) was 553 % of control and the T/C (dose: 18.0 mg/kg/injection, schedule: Q04DX003 (ip), vehicle: saline) was 120 % of control.

In the case of `CC[C@@]1(O)C[C@H](OC2CC(N(C)C)C(O)C(C)O2)c2c(cc3c(c2O)C(=O)c2c(O)ccc(O)c2C3=O)[C@H]1C(=O)OC` (stereo not given in full), the T/C (dose: 4.32 mg/kg/injection, schedule: Q04DX003 (ip), vehicle: other) was 110 % of control, the T/C (dose: 7.2 mg/kg/injection, schedule: Q04DX003 (ip), vehicle: other) was 109 % of control and the T/C (dose: 12.0 mg/kg/injection, schedule: Q04DX003 (ip), vehicle: other) was 104 % of control. The T/C (dose: 20.0 mg/kg/injection, schedule: Q04DX003 (ip), vehicle: other) was 110 % of control.

For `CCCCCCCC(=O)OCC(=O)[C@]1(O)Cc2c(O)c3c(c(O)c2[C@@H](OC2CC(N)C(O)C(C)O2)C1)C(=O)c1c(OC)cccc1C3=O` (stereo not given in full), the T/C (dose: 2.88 mg/kg/injection, schedule: Q04DX003 (ip), vehicle: water) was 121 % of control.

With `N[C@@H](Cc1ccc(N(CCCl)CCCl)cc1)C(=O)O` the T/C (dose: 3.6 mg/kg/injection, schedule: Q01DX001 (ip), vehicle: saline) was 313 % of control, the T/C (dose: 6.0 mg/kg/injection, schedule: Q01DX001 (ip), vehicle: saline) was 507 % of control and the T/C (dose: 10.0 mg/kg/injection, schedule: Q01DX001 (ip), vehicle: saline) was 507 % of control. The T/C (dose: 16.7 mg/kg/injection, schedule: Q01DX001 (ip), vehicle: saline) was 406 % of control.

For `C[n+]1ccc(Nc2ccc(NC(=O)c3ccc(Nc4cc[n+](C)c5ccc(N)cc45)cc3)cc2)cc1`, the T/C (dose: 7.2 mg/kg/injection, schedule: Q01DX009 (ip), vehicle: water) was 163 % of control.

`COc1cccc2c1C(=N)c1c(O)c3c(c(O)c1C2=O)C[C@@](O)(C(C)=O)C[C@@H]3OC1CC(N)C(O)C(C)O1` (stereo not given in full) was tested, and the T/C (dose: 3.46 mg/kg/injection, schedule: Q04DX003 (ip), vehicle: saline) was 99 % of control, the T/C (dose: 5.76 mg/kg/injection, schedule: Q04DX003 (ip), vehicle: saline) was 102 % of control and the T/C (dose: 9.6 mg/kg/injection, schedule: Q04DX003 (ip), vehicle: saline) was 115 % of control. For the same compound, the T/C (dose: 16.0 mg/kg/injection, schedule: Q04DX003 (ip), vehicle: saline) was 104 % of control.

With `CO[C@H](C(=O)[C@@H](O)[C@@H](C)O)[C@@H]1Cc2cc3cc(OC4CC(OC5CC(O)C(O)C(C)O5)C(O)C(C)O4)c(C)c(O)c3c(O)c2C(=O)[C@H]1OC1CC(OC2CC(OC3CC(C)(O)C(O)C(C)O3)C(O)C(C)O2)C(O)C(C)O1` (stereo not given in full) the T/C (dose: 0.32 mg/kg/injection, schedule: Q01DX005 (ip), vehicle: water) was 91 % of control, the T/C (dose: 0.54 mg/kg/injection, schedule: Q01DX005 (ip), vehicle: water) was 95 % of control and the T/C (dose: 0.65 mg/kg/injection, schedule: Q04DX003 (ip), vehicle: water) was 89 % of control.

In the case of `COc1cc(NS(C)(=O)=O)ccc1Nc1c2ccccc2nc2ccccc12`, the T/C (dose: 3.6 mg/kg/injection, schedule: Q04DX003 (ip), vehicle: other) was 123 % of control, the T/C (dose: 5.4 mg/kg/injection, schedule: Q04DX003 (ip), vehicle: clinical formulation) was 106 % of control and the T/C (dose: 9.0 mg/kg/injection, schedule: Q04DX003 (ip), vehicle: clinical formulation) was 114 % of control.
